Experimental findings from US20050197350A1, “Novel quinoline, tetrahydroquinazoline, and pyrimidine derivatives and methods of treatment related to the use thereof” (TAISHO PHARMACEUTICAL CO., LTD., priority 2003, published 2005) are described below.

This assay concerns MCH receptors. Put plainly: MCH receptor activity class (method not given). The settings on record: class by percent of control at 10^−7 M or IC50.

Take `Cc1cc(N(C)C)nc(N[C@H]2CC[C@@H](NC(=O)c3ccc(Cl)c(C(F)(F)F)c3)CC2)n1` [compound 2982]: the class is recorded as 1 (Class 1: The value of percent of control at 10^−7 M was less than 40% or the value of IC50 was less than 50 nM.).
The result for `Cc1cccc(C(=O)N[C@H]2CC[C@@H](Nc3nc(C)cc(N(C)C)n3)CC2)c1` [compound 2983, N-(cis-4-{[4-(dimethylamino)-6-methylpyrimidin-2-yl]amino}cyclohexyl)-3-methylbenzamide] reads 1 (Class 1: The value of percent of control at 10^−7 M was less than 40% or the value of IC50 was less than 50 nM.); that for `COc1cccc(C(=O)N[C@H]2CC[C@@H](Nc3nc(C)cc(N(C)C)n3)CC2)c1` [compound 2984, N-(cis-4-{[4-(dimethylamino)-6-methylpyrimidin-2-yl]amino}cyclohexyl)-3-methoxybenzamide], 1 (Class 1: The value of percent of control at 10^−7 M was less than 40% or the value of IC50 was less than 50 nM.); that for `Cc1ccc(C(=O)N[C@H]2CC[C@@H](Nc3nc(C)cc(N(C)C)n3)CC2)cc1` [compound 2985, N-(cis-4-{[4-(dimethylamino)-6-methylpyrimidin-2-yl]amino}cyclohexyl)-4-methylbenzamide], 1 (Class 1: The value of percent of control at 10^−7 M was less than 40% or the value of IC50 was less than 50 nM.).
The value for `Cc1cc(N(C)C)nc(N[C@H]2CC[C@@H](NC(=O)c3ccc(Cl)cc3)CC2)n1` [compound 2986] was 1 (Class 1: The value of percent of control at 10^−7 M was less than 40% or the value of IC50 was less than 50 nM.); that for `Cc1cc(N(C)C)nc(N[C@H]2CC[C@@H](NC(=O)c3cccc(Cl)c3)CC2)n1` [compound 2987] was 1 (Class 1: The value of percent of control at 10^−7 M was less than 40% or the value of IC50 was less than 50 nM.); that for `Cc1cc(N(C)C)nc(N[C@H]2CC[C@@H](NC(=O)c3ccc(F)c(F)c3)CC2)n1` [compound 2988, N-(cis-4-{[4-(dimethylamino)-6-methylpyrimidin-2-yl]amino}cyclohexyl)-3,4-difluorobenzamide] was 1 (Class 1: The value of percent of control at 10^−7 M was less than 40% or the value of IC50 was less than 50 nM.).
The value for `Cc1cc(N(C)C)nc(N[C@H]2CC[C@@H](NC(=O)c3ccc(OC(F)(F)F)cc3)CC2)n1` [compound 2989, N-(cis-4-{[4-(dimethylamino)-6-methylpyrimidin-2-yl]amino}cyclohexyl)-4-(trifluoromethoxy)benzamide] was 3 (Class 3 The value of percent of control at 10^−7 M was more than 60% or the value of IC50 was more than 200 nM.).
As for `Cc1cc(N(C)C)nc(N[C@H]2CC[C@@H](NC(=O)c3ccc(F)cc3)CC2)n1` [compound 2990, N-(cis-4-{[4-(dimethylamino)-6-methylpyrimidin-2-yl]amino}cyclohexyl)-4-fluorobenzamide], the class is 1 (Class 1: The value of percent of control at 10^−7 M was less than 40% or the value of IC50 was less than 50 nM.).
The value for `COc1cc(C(=O)N[C@H]2CC[C@@H](Nc3nc(C)cc(N(C)C)n3)CC2)cc(OC)c1OC` [compound 2991, N-(cis-4-{[4-(dimethylamino)-6-methylpyrimidin-2-yl]amino}cyclohexyl)-3,4,5-trimethoxybenzamide] was 1 (Class 1: The value of percent of control at 10^−7 M was less than 40% or the value of IC50 was less than 50 nM.); that for `Cc1cc(N(C)C)nc(NC2CCC(NC(=O)c3cccc([N+](=O)[O-])c3)CC2)n1` (stereo not shown) [compound 2992, N-(4-{[4-(dimethylamino)-6-methylpyrimidin-2-yl]amino}cyclohexyl)-3-nitrobenzamide] was 1 (Class 1: The value of percent of control at 10^−7 M was less than 40% or the value of IC50 was less than 50 nM.).
The result for `Cc1cc(N(C)C)nc(N[C@H]2CC[C@@H](NC(=O)C(c3ccccc3)c3ccccc3)CC2)n1` [compound 2993, N-(cis-4-{[4-(dimethylamino)-6-methylpyrimidin-2-yl]amino}cyclohexyl)-2,2-diphenylacetamide] reads 1 (Class 1: The value of percent of control at 10^−7 M was less than 40% or the value of IC50 was less than 50 nM.); that for `Cc1cc(N(C)C)nc(N[C@H]2CC[C@@H](NC(=O)c3ccc(Cl)c(Cl)c3)CC2)n1` [compound 2994, 3,4-dichloro-N-(cis-4-{[4-(dimethylamino)-6-methylpyrimidin-2-yl]amino}cyclohexyl)benzamide], 1 (Class 1: The value of percent of control at 10^−7 M was less than 40% or the value of IC50 was less than 50 nM.); that for `Cc1cnc(N[C@H]2CC[C@@H](NS(=O)(=O)c3ccccc3)CC2)nc1N(C)C` [compound 2995, N-(cis-4-{[4-(dimethylamino)-5-methylpyrimidin-2-yl]amino}cyclohexyl)benzenesulfonamide], 3 (Class 3 The value of percent of control at 10^−7 M was more than 60% or the value of IC50 was more than 200 nM.).
The result for `Cc1ccc(CN[C@H]2CC[C@@H](Nc3ncc(C)c(N(C)C)n3)CC2)cc1` [compound 2996] reads 3 (Class 3 The value of percent of control at 10^−7 M was more than 60% or the value of IC50 was more than 200 nM.).
Turning to `Cc1cnc(N[C@H]2CC[C@@H](NCc3ccc(F)c(F)c3)CC2)nc1N(C)C` [compound 2997], the class is given as 3 (Class 3 The value of percent of control at 10^−7 M was more than 60% or the value of IC50 was more than 200 nM.).
Take `Cc1cnc(N[C@H]2CC[C@@H](NCc3cccc(Cl)c3)CC2)nc1N(C)C` [compound 2998]: the class is listed as 3 (Class 3 The value of percent of control at 10^−7 M was more than 60% or the value of IC50 was more than 200 nM.).
For `Cc1cnc(N[C@H]2CC[C@@H](NCc3cccc(Br)c3)CC2)nc1N(C)C` [compound 2999], the class is given as 3 (Class 3 The value of percent of control at 10^−7 M was more than 60% or the value of IC50 was more than 200 nM.).
The value for `COc1cc(CN[C@H]2CC[C@@H](Nc3ncc(C)c(N(C)C)n3)CC2)cc(OC)c1` [compound 3000] was 2 (Class 2: The value of percent of control at 10^−7 M was from 40% to 60% or the value of IC′50 was from 50 nM to 200 nM.).
`Cc1cnc(N[C@H]2CC[C@@H](NCc3cc(Cl)cc(Cl)c3)CC2)nc1N(C)C` [compound 3001]: the class is 3 (Class 3 The value of percent of control at 10^−7 M was more than 60% or the value of IC50 was more than 200 nM.).
The result for `Cc1cnc(N[C@H]2CC[C@@H](NCc3ccc(Cl)c(Cl)c3)CC2)nc1N(C)C` [compound 3002] reads 3 (Class 3 The value of percent of control at 10^−7 M was more than 60% or the value of IC50 was more than 200 nM.).
The result for `COc1ccc(CN[C@H]2CC[C@@H](Nc3ncc(C)c(N(C)C)n3)CC2)cc1C` [compound 3003] reads 3 (Class 3 The value of percent of control at 10^−7 M was more than 60% or the value of IC50 was more than 200 nM.).
In the case of `Cc1cnc(N[C@H]2CC[C@@H](NCc3cccc(OC(F)(F)F)c3)CC2)nc1N(C)C` [compound 3004], the class is 3 (Class 3 The value of percent of control at 10^−7 M was more than 60% or the value of IC50 was more than 200 nM.).
The value for `Cc1cc(N(C)C)nc(N[C@H]2CC[C@@H](NCc3cccc(OC(F)(F)F)c3)CC2)n1` [compound 3005] was 3 (Class 3 The value of percent of control at 10^−7 M was more than 60% or the value of IC50 was more than 200 nM.); that for `CN(C)c1nc(N[C@H]2CC[C@@H](NC(=O)c3ccc(F)c(F)c3)CC2)ncc1C(F)(F)F` [compound 3006] was 3 (Class 3 The value of percent of control at 10^−7 M was more than 60% or the value of IC50 was more than 200 nM.); that for `Cc1cnc(N[C@H]2CC[C@@H](CNC(=O)c3cccnc3Oc3ccc(Br)cc3)C2)nc1N(C)C` [compound 3012] was 2 (Class 2: The value of percent of control at 10^−7 M was from 40% to 60% or the value of IC′50 was from 50 nM to 200 nM.).
The value for `COc1ccccc1Oc1ncccc1C(=O)NC[C@@H]1CC[C@H](Nc2ncc(C)c(N(C)C)n2)C1` [compound 3013] was 1 (Class 1: The value of percent of control at 10^−7 M was less than 40% or the value of IC50 was less than 50 nM.).
As to `Cc1cnc(N[C@H]2CC[C@@H](CNC(=O)c3cccnc3Oc3ccccc3Br)C2)nc1N(C)C` [compound 3014], the class was 3 (Class 3 The value of percent of control at 10^−7 M was more than 60% or the value of IC50 was more than 200 nM.).
Turning to `Cc1cnc(N[C@H]2CC[C@@H](CNC(=O)c3cccnc3Oc3ccccc3F)C2)nc1N(C)C` [compound 3015], the class was 1 (Class 1: The value of percent of control at 10^−7 M was less than 40% or the value of IC50 was less than 50 nM.).
Turning to `Cc1cnc(N[C@H]2CC[C@@H](CNC(=O)c3cccnc3Oc3cccc(F)c3)C2)nc1N(C)C` [compound 3017], the class is reported as 3 (Class 3 The value of percent of control at 10^−7 M was more than 60% or the value of IC50 was more than 200 nM.).
The result for `Cc1cnc(N[C@H]2CC[C@@H](CNC(=O)c3cccnc3Oc3cccc(Cl)c3)C2)nc1N(C)C` [compound 3018] reads 3 (Class 3 The value of percent of control at 10^−7 M was more than 60% or the value of IC50 was more than 200 nM.); that for `Cc1cnc(N[C@H]2CC[C@@H](CNC(=O)c3cccnc3Oc3ccc(F)c(Cl)c3)C2)nc1N(C)C` [compound 3019], 2 (Class 2: The value of percent of control at 10^−7 M was from 40% to 60% or the value of IC′50 was from 50 nM to 200 nM.).
The result for `Cc1cnc(N[C@H]2CC[C@@H](CNC(=O)c3cccnc3Oc3ccc(Cl)c(F)c3)C2)nc1N(C)C` [compound 3020] reads 3 (Class 3 The value of percent of control at 10^−7 M was more than 60% or the value of IC50 was more than 200 nM.); that for `Cc1cnc(N[C@H]2CC[C@@H](NC(=O)N(C)c3cccc(Cl)c3)CC2)nc1N(C)C` [compound 3021, N-(3-chlorophenyl)-N′-(cis-4-{[4-(dimethylamino)-5-methylpyrimidin-2-yl]amino}cyclohexyl)-N-methylurea], 1 (Class 1: The value of percent of control at 10^−7 M was less than 40% or the value of IC50 was less than 50 nM.).
